This passage reports melting point results from a melting point compilation (Tetko et al.; mined from patent text by program, amines drawn as free bases though some values may be those of a salt).

Consider `O=[N+]([O-])c1cccc(-c2nc(-c3ccccc3)cc3cccnc23)c1`, for which the melting point was in the range of 172 to 175 °C.

On to `CC(=O)OCCCOc1cccc2cc(C#N)c(=O)oc12`, for which the melting point was 132 to 135 °C.

In turn, `CCOC(=O)C(C(=O)N(C)C)=C(OC)c1ccc(Cl)cc1Cl` had a melting point of 88 to 92 °C.

Turning to `O=C(NCCNC(=O)C1CCN(c2c(Cl)cncc2Cl)CC1)c1ccccc1`, the melting point is 209 to 211 °C.

In turn, `NP(N)(=O)NC(=O)c1ccc2ccccc2c1` had a melting point of more than 400 °C.

In turn, `COc1ccc(C(=O)C=Cc2ccc(SC)cc2)cc1` yielded a melting point of 112 °C.

Molecule `CC[C@H]1c2cc(F)ccc2-c2ccccc2N1C(=O)c1ccc(O)cc1` had a melting point of 103 to 104 °C.

Molecule `CCCCCCCCCCCCCCCCCC(=O)NC(C)C(=O)NC(CCC(=O)NC(C=CCCC(=O)O)C(=O)O)C(=O)O` (stereo not drawn) registered a melting point of 200 °C.

In the case of `CCOC(=O)c1nc(S(C)(=O)=O)n(C)c(=O)c1OCc1ccccc1`, the melting point lay in the range of 84 to 85 °C.

In turn, `CCN1C(=O)OC(C)(C)c2cc(-c3cc(F)cc(C#N)c3)ccc21` displayed a melting point of 154 to 155 °C.

Regarding `Cc1cc2c(cc1N(C)C=O)N1CCN=C1S2`, the melting point was found to be 164 °C.

In turn, `CCn1c(=O)n(OCc2ccccc2)c(=O)c2cc(F)c(N3CCC(NC(=O)OC(C)(C)C)C3)nc21` (stereo not drawn) displayed a melting point of 157 to 159 °C.

`CCCn1c(=O)n2c(=O)[nH]nc2c2[nH]cnc21` displayed a melting point of more than 290 °C.

With `CC(C)(O)[C@H](NC(=O)C(Cl)(Cl)Cl)c1ccccc1`, the melting point turned out to be 97 °C.

`CC(C)OP(=O)(/C=C/CCn1cnc2c(N)nc(N)nc21)OC(C)C` showed a melting point of 211 to 213 °C.

`CC1(C)Cc2nc(C3CCCC3)c(C(=O)c3ccc(C(F)(F)F)cc3)c(-c3ccc(F)c(F)c3)c2C(O[Si](C)(C)C(C)(C)C)C1` (stereo not drawn) registered a melting point of 128 to 129 °C.

`Cc1n[nH]c2c1c(=O)n(-c1ccccc1)c1ncccc21` yielded a melting point of more than 300 °C.

For the molecule `CCCCCCCCCCCCCCCCCCCCCCNc1cc(N)c([N+](=O)[O-])cc1[N+](=O)[O-]`, the melting point was in the range of 108 to 110 °C.

The molecule `O=C1CCC(CCc2ccc(-n3ccnc3)cc2)=NN1` had a melting point of 195 to 196 °C.

`CCCOc1ccc(-c2ccc3c(c2)C=C(C(=O)Nc2ccc(CN(C)C4CCOCC4)cc2)CCS3(=O)=O)cc1` yielded a melting point of 244 to 247 °C.

As for `Cc1nc(-c2cc3cc(OCCNC[C@@H](O)c4csc(C(F)(F)F)n4)ccc3o2)no1`, the melting point is 143 to 146 °C.

Molecule `COc1cc2c(cc1OC)C(=O)C(c1ccc(F)cc1)C2` (stereo not drawn) showed a melting point of 189 to 191 °C.

In the case of `c1ccc(-c2noc(-c3cccc4ccccc34)n2)nc1`, the melting point was in the range of 132 to 136 °C.

On to `CN(C)c1nc(Cl)nc(Cl)n1`, for which the melting point was in the range of 123 to 124 °C.

The molecule `CC(C)(C)NC(=O)NC1=CC(=O)CCC1` came in with a melting point of 223 to 225 °C.

The molecule `CCCC[C@H](NC(=O)[C@H](CC(C)C)NC(=O)COc1ccc(F)cc1)C(=O)CSCc1ccco1` registered a melting point of 88 to 91 °C.

The molecule `COc1nc2c(Cl)c(Cl)c(Cl)c(Cl)c2n1COCCO` gave a melting point of 139 °C.

Turning to `c1ccc(-n2c(Cc3cccnc3)nc3ccccc32)cc1`, the melting point is 115 to 116 °C.

`C=C(CN(C)C)C(O)c1ncc2c(c1O)COC2(C)c1ccccc1` (stereo not drawn) registered a melting point of 178 to 179 °C.

`Nc1cccc(C(=O)Nc2ccc(-c3ccc(C(=O)N4CCN5CCC4CC5)o3)cc2)c1` came in with a melting point of 249 to 252 °C.

`CC(C)(C(=O)O)C1CCN(Cc2ccccc2)CC1` came in with a melting point of 195 °C.

`CC(C)(C)OC(=O)C(F)=CC1C(C(=O)O)C1(C)C` (stereo not drawn) showed a melting point of 90 °C.

`O=C1C=CC2(C=C1)N=C(N1CCN(Cc3ccccc3)CC1)C=C2c1ccccc1` gave a melting point of 190 °C.

For the molecule `Fc1cccc(/C=C/C2=CCN(Cc3c[nH]c4ncccc34)CC2)c1`, the melting point fell in the range of 199 to 201 °C.

With `CON=C(C(=O)OC)c1cccc(OCc2ccccc2)c1`, the melting point was 62 to 63 °C.

Take `CCC(CC)c1ccc(Cl)c2nc(Nc3ccc(OC)nc3OC)n(CCCCO)c12`: the melting point lay in the range of 116 to 118 °C.

`O=c1c(O)c(-c2ccccc2)oc2cc(O)ccc12` showed a melting point of 128 °C.

In turn, `CC(C)(C)OC(=O)NCCCn1c(CCCOc2ccccc2)nc2c(N)nc3ccccc3c21` had a melting point of 151 to 153 °C.

Molecule `CCCN1N=C2C(=Cc3ccccc3)COCC2C1c1ccccc1` (stereo not drawn) registered a melting point of 114 to 115 °C.

`NC(=Nc1ccc(-n2cccc2)c(CNC(=O)CCCCC2CCSS2)c1)c1cccs1` (stereo not drawn) showed a melting point of 156 to 158 °C.

With `O=c1[nH]c2ccccc2n2cc(-c3ccccc3)cc12`, the melting point was in the range of 301 to 303 °C.

The molecule `NC(=O)Cc1ccc(-c2csc(N=C(N)N)n2)o1` returned a melting point of 219 to 220 °C.

In turn, `CCc1c[nH]c(-c2ccc3c(c2)N(C(C)CN2CCCC2)c2ccccc2S3)n1` (racemic) gave a melting point of 197 °C.

In turn, `C[C@@H](Nc1ncnc2[nH]c(-c3cccc([N+](=O)[O-])c3)cc12)c1ccccc1` came in with a melting point of more than 250 °C.

On to `O=C(CCNC(=O)c1ccccc1)NCCSC(=O)c1ccccc1`, for which the melting point was 154 to 155 °C.

Take `O=C(CCCN1CCN(c2cc(-c3ccc(F)cc3)c3c(n2)CCC3)CC1)c1ccc(F)cc1`: the melting point was 115 to 116 °C.

In turn, `Cn1cc([N+](=O)[O-])nc1C(Cl)Cl` showed a melting point of 153 °C.

Molecule `CSCC1Cn2cc(C(=O)NCc3ccc(Cl)cc3)c(=O)c3cc(CN4CCOCC4)cc(c32)O1` (stereo not drawn) gave a melting point of 190 to 191 °C.

The molecule `Cc1cc(C(=O)NCO)ncc1C(c1c(F)ccc(F)c1F)S(=O)(=O)c1ccc(OC(F)(F)F)cc1` (stereo not drawn) yielded a melting point of 140 to 141 °C.

As to `COc1ccc(S(=O)(=O)Nc2cccc3c2Nc2ccccc2CO3)cc1`, the melting point fell in the range of 154 to 155 °C.

Take `O=C(CC1CCC2(CC1)OOC1(CCCCCCCCCCC1)OO2)N1CCS(=O)(=O)CC1`: the melting point was in the range of 170 to 172 °C.

`O=C(O)C=Cc1cccc(OCc2nc(-c3ccccc3)c(-c3ccccc3)o2)c1`: the melting point lay within 145 to 147 °C.

`O=C(Cn1nnnc1-c1ccc2ccccc2c1)OCCO` yielded a melting point of 64 to 66 °C.

Turning to `CC(C)c1ccc(-c2nc(-c3cccc(C(=O)O)c3)co2)cc1`, the melting point is 187 to 189 °C.

Molecule `COc1cc(C)c(OC)c(OC)c1-c1csc(NC(=O)c2cc3ccccc3[nH]2)n1` showed a melting point of 200 °C.

The molecule `COc1ccc(/C=C(\C#N)c2cccc(Br)c2)cc1OC1CCCC1` showed a melting point of 90 to 91.5 °C.

On to `Cc1c(C(=O)Nc2ccc(N3CCCCC3)c(C#N)c2)cnn1-c1ccc(F)cc1`, for which the melting point is 196 to 197 °C.

As to `COC(=O)c1cccc(-c2cn(C)cc(-c3cccc(C)c3)c2=O)c1`, the melting point is 180 to 183 °C.

Take `CC1CCC(C(C)C)C(OCC(=O)OC2CC(=O)C(CCCCCCC(=O)O)=C2C=Cc2ccccc2)C1` (stereo not drawn): the melting point was in the range of 103 to 104 °C.

Turning to `COCc1nc(C=O)c[nH]1`, the melting point fell in the range of 100 to 103 °C.

The molecule `CC(=O)NC(=S)NCCC1CC2c3cccc4[nH]cc(c34)CC2N(C)C1` (stereo not drawn) returned a melting point of 213 to 215 °C.

In turn, `O=C(c1ccc(O)cc1)c1ccon1` displayed a melting point of 125 to 127 °C.

Consider `CC(=O)NC[C@H]1CN(c2ccc(C3CCNCC3)cc2)C(=O)O1`, for which the melting point was in the range of 146 to 148 °C.

Broadly, the melting point is the temperature of the solid-liquid transition.
